Read-outs that look alike come from different tables or passages of the source. Marks after values point to notes of the source that are not given here.
What was measured:
[1] = Infected patients (Example 96); type: in vivo, human; settings: IM862 100 μg 5-10 days, 36 patients
Description: A total of 36 patients infected and 24 patients infected were controls.

[2] = Prolonged IM862 therapy trials in irradiated patients, blood parameters; type: in vivo, human
Description: The group of patients described in Example 42 were further treated for a period of […] and tested again subsequent to the first stage of therapy (after 4 months) and after the second stage of therapy (6 months).

[3] = Infected patients with icterus (Example 95); type: in vivo, human; settings: IM862 100 μg 5-10 days, 48 patients
Description: The hematological and immunological indices were normalized.

[4] = tested on: skin grafts; test: Skin allograft survival in mice; type: in vivo
[5] = Cancer patients after radiation and chemo-therapy; type: in vivo, human; settings: IM862 100 μg daily 10 days, 246 patients
Description: If it vas determined necessary based on immunological indices, the treatment regimen was repeated in 4-6 months.

[6] = Post-term women; type: in vivo, human; settings: IM862 IM or intranasally over 3-5 days, 19 women
Description: A total of 19 post-term women and 48 women post-term in the control study were treated.

[7] = tested on: Staphylococci; test: Antibiotic-sensitivity of staphylococci from skin lesions (MIC, series cultivation); type: cell-based; settings: after IM862 use (initially 10 of the 15)
Description: Staphylococci extracted from dermal lesions were initially sensitive to 10 of the 15 antibiotics being assayed (Table 25).

[8] = tested on: hemorrhagic Dengue Fever; test: Hemorrhagic Dengue Fever study, duration of symptoms; type: in vivo, human; settings: IM862 administered
Description: All those examined were representatives of organized collectives and had the same type of working and living conditions prior to the onset of illness. The patients were referred to in-patient treatment to the 175th Military Hospital in Ho Chi Minh City during an epidemic of Dengue fever in southern Socialist Republic of Vietnam.
Diagnoses of HDF were established by criteria recommended by the WHO (1986). Serological analyses were performed at the Arbovirus Infections Laboratory of the Pasteur Institute (Ho Chi Minh City). Disease severity was 1-2 in all patients.
The patients were divided into one group treated with IM862 and one group not receiving IM862. […] The efficacy of therapy was determined by observation of the duration of the most frequently encountered signs and symptoms of the disease (Table 14).

[9] = Acute radiation sickness, 6 months after accident, blood parameters; type: in vivo, human; settings: after therapy with IM862
Description: The patients described above in Example 47 were tested for blood parameters after 6 months of treatment immediately following exposure to the radiation caused by the Chernobyl accident.

[10] = Psoriasis study (Example 108); type: in vivo, human; settings: during treatment
Description: A comparative study of immunological, coagulation, and acute phase protein parameters was conducted on 30 patients with disseminated forms of psoriasis on normal treatment. Twenty-seven patients had widespread lesions of the smooth skin and scalp; two had psoriatic erythroderma. The period of illness in the majority of those examined exceeded 5 years. In two persons the nail plates were involved in the form of a “thimble” symptom.
Patients were treated under identical conditions and received therapy of vitamins B12, B6, and A, folic acid, pyrogens, sedatives, and desensitizing preparations. Salidol ointment and 3-5% sulfur-salicylic ointments were used locally.
Basic immunological and coagulation assays were conducted on all patients. The findings obtained were compared with the results of investigations done on healthy people between the ages of 18-40 years. […] At the same time, a drop is noted in the quantity of T-lymphocytes, a decrease in the level of T-helpers and suppressors, and a growth in the concentrations of IgA, M, and to a lesser degree, IgG.

[11] = tested on: methicillin-resistant Staphylococcal aureus
Description: Animals were inoculated intraperitoneally with 10×LD of Staphylococcal aureus suspended in brain-heart infusion broth containing 5 percent mucin. The antibiotic was administered s.c., i.p., or p.o., one hour following bacterial inoculation and deaths occurring during the subsequent three days are recorded.
Two control experiments were conducted. […] The number of survivors at 72 hours was determined. […] The number of survivors at 72 hours was again recorded.
Test mice were divided into 3 groups.

[12] = after the 1st stage of IM862 use
[13] = after the 2nd state of IM862 use
[14] = Group 2: IM862 0.01 mg/kg 3 days before inoculation, ampicillin control (0), 5 test animals, 72 hours
[15] = Group 3: IM862 0.01 mg/kg 3 days + ampicillin 100 mg/kg 1 hr, 5 test animals, 72 hours
[16] = Group 4: IM862 0.01 mg/kg 3 days + ampicillin 10 mg/kg 1 hr, 5 test animals, 72 hours
[17] = Group 5: IM862 0.01 mg/kg 3 days + ampicillin 1 mg/kg 1 hr, 5 test animals, 72 hours
[18] = Group 6: IM862 0.001 mg/kg 3 days + ampicillin 100 mg/kg 1 hr, 5 test animals, 72 hours
[19] = Group 7: IM862 0.001 mg/kg 3 days + ampicillin 10 mg/kg 1 hr, 5 test animals, 72 hours
[20] = Group 8: IM862 0.001 mg/kg 3 days + ampicillin 1 mg/kg 1 hr, 5 test animals, 72 hours

Glu-Trp [IM862]
clinical effect [1]: reduction of fever | CD2-DR+, % [2, 12]: 22.3 ± 0.5% | CD2-DR+, abs [2, 12]: 0.34 ± 0.05* 10^9/l | CD3, % [2, 12]: 35 ± 4 % | CD3, abs [2, 12]: 0.49 ± 0.06* 10^9/l | CD4, % [2, 12]: 19.5 ± 1.7 % | CD4, abs [2, 12]: 0.28 ± 0.03* 10^9/l | CD8, % [2, 12]: 15.4 ± 2.3% | CD8, abs [2, 12]: 0.23 ± 0.03 10^9/l | CD19, % [2, 12]: 15.0 ± 2.8% | CD19, abs [2, 12]: 0.21 ± 0.06 10^9/l | Leukocytes, abs [2, 12]: 4.7 ± 0.2* 10^9/l | Lymphocytes, abs [2, 12]: 1.5 ± 0.4 10^9/l | CD2-DR+, % [2, 13]: 29 ± 3 % | CD2-DR+, abs [2, 13]: 0.56 ± 0.08* 10^9/l | CD3, % [2, 13]: 46 ± 3 % | CD3, abs [2, 13]: 0.89 ± 0.11* 10^9/l | CD4, % [2, 13]: 24.1 ± 1.5 % | CD4, abs [2, 13]: 0.45 ± 0.04* 10^9/l | CD8, % [2, 13]: 22.3 ± 2.2 % | CD8, abs [2, 13]: 0.40 ± 0.05* 10^9/l | CD19, % [2, 13]: 21.1 ± 2.1 % | CD19, abs [2, 13]: 0.39 ± 0.06* 10^9/l | Leukocytes, abs [2, 13]: 5.5 ± 0.3* 10^9/l | Lymphocytes, abs [2, 13]: 1.9 ± 0.5* 10^9/l | clinical effect [3]: normalization of fever | GRAFT REJECTION TIME ([4]; mice, daily for 5 treatments prior to grafting, IM862 0.01 mg/kg, Thymalin 1.0 mg/kg): 8.3 ± 0.4 days | graft survival ([4]; vs animals not receiving Glu-Trp): prolonged survival | clinical effect [5]: normalization of immunological indices | clinical effect [6]: effacement of the cervix | number of the 15 tested antibiotics to which organisms from the infected foci were sensitive [7]: 14 | Duration of Abdominal pain [8]: 7.7 ± 1.1 days | Duration of Anorexia [8]: 7.5 ± 0.8 days | Duration of Headaches [8]: 8.1 ± 0.9 days | Duration of Hepatomegaly [8]: 11.3 ± 0.8 days | Duration of Insomnia [8]: 7.1 ± 0.7 days | Duration of Joint pain [8]: 7.4 ± 0.7 days | Duration of Low back pain [8]: 8.1 ± 0.8 days | Duration of Lumbar pain [8]: 8.7 ± 0.7 days | Duration of Ophthalmalgia [8]: 6.6 ± 0.8 days | Duration of Splenomegaly [8]: 9.6 ± 0.7 days | Duration of Weakness/fatigue [8]: 9.3 ± 0.8 days | Duration of Fever, Prescription 2-4 days ([8]; total dose 500 μg): 4.7 ± 0.2 days | Duration of Fever, Prescription 2-6 days ([8]; total dose 500 μg): 5.2 ± 0.3 days | B-Ig+, % [9]: 19.0 ± 1.3 % | B-Ig+, abs [9]: 0.29 ± 0.03 10^9/liter | B-IgA+, % [9]: 1.8 ± 0.3% | B-IgA+, abs [9]: 0.030 ± 0.002 10^9/liter | B-IgG+, % [9]: 6.4 ± 0.5 % | B-IgG+, abs [9]: 0.100 ± 0.007 10^9/liter | B-IgM+, % [9]: 8.8 ± 0.7% | B-IgM+, abs [9]: 0.13 ± 0.02 10^9/liter | CD2, % [9]: 49 ± 3 % | CD3, % [9]: 53.4 ± 1.8 % | CD3, abs [9]: 0.82 ± 0.04** 10^9/liter | CD4, % [9]: 32.6 ± 1.4 % | CD4, abs [9]: 0.50 ± 0.04* 10^9/liter | CD19, % [9]: 26.7 ± 2.1% | CD19, abs [9]: 0.041 ± 0.03** 10^9/liter | CDS, % [9]: 21.2 ± 1.8% | CDS, abs [9]: 0.32 ± 0.03 10^9/liter | IgA [9]: 1.8 ± 0.9 g/L | IgG [9]: 10.9 ± 1.1 g/L | IgM [9]: 1.07 ± 0.09 g/L | LMI [9]: 72.7 ± 4.5 | Lymphocytes % [9]: 30.0 ± 1.8% | Lymphocytes, abs [9]: 1.52 ± 0.12* 10^9/liter | T4/T8 [9]: 1.54 ± 0.11 | clinical status and immunological parameters [10]: improvement in clinical status and normalization of immunological parameters | Survivors ([11]; 0.01 mg/kg IM862 3 days prior to bacterial inoculum, no antibiotic): Four of 5 animals survived | Percent ip Survivors [11, 14]: 80% | Survivors [11, 14]: 4 | Percent ip Survivors [11, 15]: 100% | Survivors [11, 15]: 5 | Percent ip Survivors [11, 16]: 100% | Survivors [11, 16]: 5 | Percent ip Survivors [11, 17]: 100% | Survivors [11, 17]: 5 | Percent ip Survivors [11, 18]: 100% | Survivors [11, 18]: 5 | Percent ip Survivors [11, 19]: 100% | Survivors [11, 19]: 5 | Percent ip Survivors [11, 20]: 100% | Survivors [11, 20]: 5

Source: patent US20030198617A1, “Pharmaceutical tryptophan containing dipeptide compositions and methods of use thereof” (priority 1993, published 2003)
